Values after ≈ are worked out from the molar mass of the structure shown.
Assays:
[1] = system: intracranial U251MG gliomas; assay: Survival, intracranial glioma, intratumoral Ad and systemic 5-FC; type: in vivo, SCID mice; settings: no virus/5-FC
Protocol: U87MG and D54MG cells (5×10^5) were stereotactically injected into the right frontal cortex of SCID mice. Tumors were established for 5 days before intratumoral injection of AdCMVCD (10^8 or 10^9 pfu/mouse). Mice were then treated IP with 5-FC (500 mg/kg bid) on days 2-9 post infection and monitored for survival. Kaplan-Meier survival curves and median and 20% survival values were calculated by standard methods.
Additional experiments were performed on intracranial tumors derived from all three glioma models. […] Similar results were obtained with SCID mice bearing intracranial U87MG gliomas (AdE1ACD/5-FC 84 days, AdE1ACD/saline 49 days, no virus/5-FC 57 days, p<0.01; Table II and Table 12).

[2] = system: BXPC-3 pancreatic tumor cells transfected with AdCMVCD; assay: MRS of 5-FC to 5-FU conversion in vitro; type: cell-based, human; settings: after 120 minutes; 3.8 mM 5-FC
Protocol: In vitro models of molecular chemotherapy were developed using the AdCMVCD cytosine deaminase toxin gene for the transfection of both human pancreatic and colon cancer cell lines (BXPC-3, WiDR, LS174T). […] In this study, an in vitro treatment model was proposed using 3×10^6 BXPC-3 pancreatic tumor cells transfected at a MOI of 100 with AdCMVCD. These cells were then examined by MRS at 0, 2, 6 and 24 hours for conversion of 5-FC to 5-FU.
Initial studies have shown the sensitivity of fluorine spectroscopy by its ability to detect 3.8 mM 5-FC when initially added to transfected BXPC-3 cells. […] However, after 120 minutes, the signal for 5-FC had dropped to 50% of its original intensity and the signal for 5-FU had increased to approximately 40% of the original 5-FC signal indicating conversion of 5-FC to 5-FU.

[3] = system: WiDr human colon cancer cells; assay: Radiation dose response, colony formation after Ad infection and 5-FC; type: cell-based; settings: No Viral Infection, 20 mg/ml 5-FC
Protocol: WiDr human colon cancer cells were plated at a density of 5×10^5 cells/well in 6-well tissue culture plates 24 hours prior to adenoviral infection. WiDr cells were then infected with AdCMVCD at a multiplicity of infection (MOI) of 1 or 10 plaque forming units (pfu) per cell in 0.5 ml Opti-Mem (Gibco-BRL) for 1.5 hours. A control virus that encodes the reporter gene E. coli LacZ which produces β-galactosidase (AdCMVLacZ) was provided by Dr. De-Chu Tang. Viral infection was stopped by the addition of 3 ml of complete growth media and the cells were returned to the incubator overnight. The following day, media was replaced with media supplemented with the appropriate concentration of 5-FC or no drug. The cells were then incubated in 5-FC for 3 days. The cells were then mock irradiated or irradiated on ice using a Picker ^60Co therapy unit (Cleveland, Ohio) at a dose rate of 80 cGy/min. The cells were then plated for colony formation. Colonies formed in 14 days and were fixed in ethanol and stained with 1% crystal violet.
SK-ChA-1 cells were infected with 10 MOI of AdCMVCD, or AdCMVLacZ, treated with 0, 10 or 20 μg/ml 5-FC for 72 hours, then irradiated with 0 or 8 Gy (80 cGy/min). The cells were irradiated on ice, then trypsinized, counted and plated in triplicate in 25 cm^2 tissue culture dishes (Costar) in media free of 5-FC. The plates were fixed and stained 14 days later. For both WiDr and SK-ChA-1 cells, colonies containing greater than 50 cells were counted. Percent survival was calculated as the average number of colonies counted divided by the number of cells plated times plating efficiency (PE); where PE was the fraction of colonies counted divided by cells plated without radiation. The dose response curve was fitted using the Fit v 2.4 software (provided by Dr. N. Albright, University of California at San Francisco, San Francisco, Calif.).

ASPC-1 = assay: 5-FU toxicity, MTS assay; type: cell-based; settings: Homo sapiens, ASPC1, 120 h, 5 days
Protocol: (§1) Tumor cells (5×10^4) were plated in 96 well plates and allowed to adhere overnight. Cells were then incubated continuously in the presence of increasing concentrations of 5-FU (0-200 μg/ml) and assayed for toxicity using an MTS assay (Promega, Madison Wis.) after 5-days. ICx values were calculated as previously described. U251MG glioma cells were as sensitive to 5-FU as LS174T and WiDR colon carcinoma cells, while D54MG, U87MG and U118MG glioma cells and AsPC-1 pancreatic carcinoma cells were 3-fold less sensitive (Table 2).

U118MG = assay: 5-FU toxicity, MTS assay; type: cell-based; settings: Homo sapiens, U-118-MG, 120 h, 5 days
Protocol: as §1

LS174T = assay: 5-FU toxicity, MTS assay; type: cell-based; settings: Homo sapiens, 120 h, 5 days
Protocol: as §1

WiDr = assay: 5-FU toxicity, MTS assay; type: cell-based; settings: Homo sapiens, 120 h, 5 days
Protocol: as §1

D54MG = assay: 5-FU toxicity, MTS assay; type: cell-based; settings: Homo sapiens, 120 h, 5 days
Protocol: as §1

BXPC-3 = assay: 5-FU toxicity, MTS assay; type: cell-based; settings: Homo sapiens, 120 h, 5 days
Protocol: as §1

U251MG = assay: 5-FU toxicity, MTS assay; type: cell-based; settings: Homo sapiens, U-251, 120 h, 5 days
Protocol: as §1

U87MG = assay: 5-FU toxicity, MTS assay; type: cell-based; settings: Homo sapiens, U-87 MG, 120 h, 5 days
Protocol: as §1

SMILES: Nc1nc(=O)[nH]cc1F [5-FC, 5-fluorocytosine]
- median survival [1]: 23 days
- 5-FC MRS signal, % of its original intensity [2]: 50%
- Linear Quadratic Parameters a [3]: 0
- Linear Quadratic Parameters al [3]: 0
- Linear Quadratic Parameters b [3]: 0.04
- Single Hit Multiple Target Do [3]: 1.760
- Single Hit Multiple Target Dq [3]: 3.679

SMILES: O=c1[nH]cc(F)c(=O)[nH]1 [5-FU, 5-fluorouracil]
- 5-FU MRS signal, % of the original 5-FC signal [2]: approximately 40%
- IC20 (ASPC-1): 0.04 µg/mL (≈ 0.308 µM)
- IC50 (ASPC-1): 1.58 µg/mL (≈ 12.1 µM)
- IC80 (ASPC-1): 39.4 µg/mL (≈ 303 µM)
- IC20 (U118MG): 0.24 µg/mL (≈ 1.85 µM)
- IC50 (U118MG): 1.06 µg/mL (≈ 8.15 µM)
- IC80 (U118MG): 61.5 µg/mL (≈ 473 µM)
- IC20 (LS174T): 0.11 µg/mL (≈ 0.846 µM)
- IC50 (LS174T): 0.3 µg/mL (≈ 2.31 µM)
- IC80 (LS174T): 2.33 µg/mL (≈ 17.9 µM)
- IC20 (WiDr): 0.03 µg/mL (≈ 0.231 µM)
- IC50 (WiDr): 0.13 µg/mL (≈ 0.999 µM)
- IC80 (WiDr): 1.7 µg/mL (≈ 13.1 µM)
- IC20 (D54MG): 0.33 µg/mL (≈ 2.54 µM)
- IC50 (D54MG): 1.1 µg/mL (≈ 8.46 µM)
- IC80 (D54MG): 8.53 µg/mL (≈ 65.6 µM)
- IC20 (BXPC-3): 0.01 µg/mL (≈ 0.0769 µM)
- IC50 (BXPC-3): 0.04 µg/mL (≈ 0.308 µM)
- IC80 (BXPC-3): 0.69 µg/mL (≈ 5.3 µM)
- IC20 (U251MG): 0.07 µg/mL (≈ 0.538 µM)
- IC50 (U251MG): 0.38 µg/mL (≈ 2.92 µM)
- IC80 (U251MG): 3.81 µg/mL (≈ 29.3 µM)
- IC20 (U87MG): 0.37 µg/mL (≈ 2.84 µM)
- IC50 (U87MG): 1.06 µg/mL (≈ 8.15 µM)
- IC80 (U87MG): 14 µg/mL (≈ 108 µM)
